Measured values published in PMC8061081 (Fitoterapia, 2021).

Each compound was assayed against T1, SARS-CoV-2 3CL^pro (Severe acute respiratory syndrome coronavirus 2, UniProt P0DTD1) (assay: biochemical). Conditions: not given.

Compound | IC50 [µM]
CC(C)(C)[C@]1(O)CC2OC(=O)CC23C(=O)OC2OC(=O)[C@H](O)C231 (some centres unmarked) [bilobalide] | > 100
COc1cc(-c2oc3cc(O)cc(O)c3c(=O)c2O)ccc1O [isorhamnetin] | 31.6 ± 16.6
COc1ccc(-c2cc(=O)c3c(O)cc(O)cc3o2)cc1-c1c(O)cc(O)c2c(=O)cc(-c3ccc(O)cc3)oc12 [bilobetin] | 11.2 ± 2.41
COc1cc(O)c2c(=O)cc(-c3ccc(OC)c(-c4c(O)cc(O)c5c(=O)cc(-c6ccc(O)cc6)oc45)c3)oc2c1 [ginkgetin] | 2.98 ± 0.86
C[C@@H]1C(=O)O[C@H]2C[C@@]34[C@H]5C[C@@H](C(C)(C)C)[C@]36[C@@H](OC(=O)[C@@H]6O)O[C@@]4(C(=O)O5)[C@]21O [ginkgolide A] | > 100
COc1cc(O)c2c(=O)cc(-c3ccc(O)cc3)oc2c1 [genkwanin] | 10.6 ± 1.89
C[C@@H]1O[C@@H](Oc2c(-c3ccc(O)c(O)c3)oc3cc(O)cc(O)c3c2=O)[C@H](O)[C@H](O)[C@H]1O [quercitrin] | > 100
COc1ccc(-c2cc(=O)c3c(O)cc(O)c(-c4cc(-c5cc(=O)c6c(O)cc(O)cc6o5)ccc4OC)c3o2)cc1 [isoginkgetin] | 2.33 ± 0.46
O=c1c(O)c(-c2ccc(O)cc2)oc2cc(O)cc(O)c12 [kaempferol] | > 100
O=c1cc(-c2ccc(O)c(-c3c(O)cc(O)c4c(=O)cc(-c5ccc(O)cc5)oc34)c2)oc2cc(O)cc(O)c12 [amentoflavone] | 8.65 ± 3.72

Same assay, conditions: 3CLpro 4 μg/mL, preincubation 37 °C 40 min, substrate 20 μM, PBS pH 7.4

Compound | IC50 [µM]
COc1ccc(-c2cc(=O)c3c(O)cc(O)c(-c4cc(-c5cc(=O)c6c(O)cc(OC)cc6o5)ccc4OC)c3o2)cc1 [sciadopitysin] | 1.09 ± 0.19

Same assay, conditions: pH 7.4

Compound | IC50 [µM]
CCCCCCCCCCCCCc1cccc(O)c1C(=O)O [GA C13:0] | 3.57 ± 0.9
CCCCCC/C=C\CCCCCCCCCc1cccc(O)c1C(=O)O [GA C17:1] | 1.19 ± 0.15
CCCCCC/C=C\CCCCCCCc1cccc(O)c1C(=O)O [GA C15:1] | 3.45 ± 0.78

The compounds below were run against T1, SARS-CoV-2 3CL^pro (assay: Inhibition kinetics, determination of inhibition constants). Conditions: inhibition kinetic plots and Lineweaver-Burk plots.
Format: biochemical

Compound | Inhibition mode
CCCCCC/C=C\CCCCCCCCCc1cccc(O)c1C(=O)O [GA C17:1] | reversible and mixed-inhibition
CCCCCCCCCCCCCCCc1cccc(O)c1C(=O)O [GA C15:0] | reversible and mixed-inhibition
COc1ccc(-c2cc(=O)c3c(O)cc(O)c(-c4cc(-c5cc(=O)c6c(O)cc(OC)cc6o5)ccc4OC)c3o2)cc1 [sciadopitysin] | reversible and mixed-inhibition
